Test results as given in US9512406B2, “Generating hepatocytes” (The J. David Gladstone Institutes, a testamentary trust …, priority 2013, dated 2016).
Numbered stars: 1 amine (or outer) side, 2 acyl side, 3 side chain; on linkers, the order of the positions; unused ones are H or OH. Square brackets hold non-standard residues; d marks the D form. Peptide text beside a SMILES is read from it. * marks the point of attachment. X1 = CC(N[*:1])C(=O)C(F)(F)C(=O)[*:2]; Boc = CC(C)(C)OC(=O)*

Legend:
CYP2D6 = CYP2D6 (Homo sapiens, UniProt P10635); settings: 2 mg/kg debrisoquine by gavage; mice repopulated with iMPC-Heps or aHeps
Sequence of CYP2D6 (P10635 whole entry): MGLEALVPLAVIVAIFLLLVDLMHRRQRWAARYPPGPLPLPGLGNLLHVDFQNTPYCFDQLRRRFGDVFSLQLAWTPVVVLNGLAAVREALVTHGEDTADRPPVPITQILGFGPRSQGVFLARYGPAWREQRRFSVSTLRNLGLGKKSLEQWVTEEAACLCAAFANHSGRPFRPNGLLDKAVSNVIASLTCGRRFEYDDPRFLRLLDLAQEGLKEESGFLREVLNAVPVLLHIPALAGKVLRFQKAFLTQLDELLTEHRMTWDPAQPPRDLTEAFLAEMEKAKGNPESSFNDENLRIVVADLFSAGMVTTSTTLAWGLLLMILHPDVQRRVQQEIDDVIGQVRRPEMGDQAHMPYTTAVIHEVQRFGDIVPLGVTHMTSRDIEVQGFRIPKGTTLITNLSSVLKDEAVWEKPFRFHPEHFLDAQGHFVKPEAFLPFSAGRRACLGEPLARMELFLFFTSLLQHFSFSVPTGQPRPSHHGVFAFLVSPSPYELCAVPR
Source text: Scale bar=100 μm. […] Scale bars=100 μm. […] Scale bars=100 μm.

iMPC-EPCs [1] = assay: Expansion of iMPC-EPC colonies
iMPC-EPCs [2] = assay: Hepatocyte differentiation of iMPC-EPCs, ALB gene expression by qRT-PCR; settings: day 18 of hepatocyte specification; particularly when applied together
Description: Error bars represent SEM of technical replicates (n=3).
For qRT-PCR analysis, total RNA was extracted using the miRNeasy Mini Kit (Qiagen) or RNeasy Plus Mini Kit in combination with QIAshredder (Qiagen). First-strand reverse transcription was performed with 0.5-1 μg RNA using the iScript cDNA Synthesis Kit (BioRad) or qScript cDNA Supermix (Quanta Biosciences). qRT-PCR was performed using PerfeCTa SYBR Green SuperMix (Quanta) or iQ SYBR Green Supermix (Bio-Rad) on an Applied Biosciences ViiA 7 Real-Time PCR System (Invitrogen). aHeps purchased from Yecuris or the Liver Tissue Cell Distribution System (LTCDS) were shipped overnight in suspension, centrifuged for 5 minutes at 300×g immediately after arrival, and stored as cell pellets at −80° C. prior to RNA extraction.
To improve hepatocyte differentiation, small molecules were screened for induction of ALB gene expression.

[3] = tested on: HDAC activity in HeLa extracts; settings: read-out: IC50 for inhibition of HDAC activity; cited from earlier work
[4] = tested on: histone deacetylases (HDACs); settings: isoform not stated; read-out: IC50 (histone deacetylase inhibition); cited from earlier work
γ-secretase = settings: for total β-amyloid; cited from earlier work
presenilase = settings: at higher concentrations (20-400 μM); cited from earlier work
SAPK2/p38 = SAPK2/p38 (Homo sapiens, UniProt Q16539); settings: CK1 and ALK5 inhibitor versus SAPK2/p38; cited from earlier work
Sequence of SAPK2/p38 (Q16539 whole entry): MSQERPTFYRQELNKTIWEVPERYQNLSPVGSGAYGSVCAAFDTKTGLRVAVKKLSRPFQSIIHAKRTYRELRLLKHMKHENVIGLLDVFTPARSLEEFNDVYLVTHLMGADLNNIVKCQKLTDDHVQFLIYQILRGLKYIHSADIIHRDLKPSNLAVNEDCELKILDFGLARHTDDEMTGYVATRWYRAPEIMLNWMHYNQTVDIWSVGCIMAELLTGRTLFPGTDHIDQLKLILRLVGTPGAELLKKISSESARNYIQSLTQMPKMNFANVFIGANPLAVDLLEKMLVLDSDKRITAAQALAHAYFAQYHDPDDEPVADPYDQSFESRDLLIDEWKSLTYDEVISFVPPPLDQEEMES

[5] = tested on: Human newborn fibroblasts (CRL-2097, ATCC); assay: Reprogramming of newborn fibroblasts to endoderm, FOXA2-positive colonies by immunostaining; settings: day 28; added to CHIR/Activin A reprogramming medium
Description: The small molecules tested included combinations of CHIR99021 (CH), dilauroyl phosphatidylcholine (DLPC), sodium butyrate (NaB), parnate (Par), and RG108 (RG). […] Medium containing Activin A was additionally supplemented with the indicated small molecules.
Standard immunostaining was carried out as previously reported. […] Nuclei were visualized by Hoechst (Sigma-Aldrich) staining. Images were captured using a Nikon Eclipse TE2000-U microscope.
Next, EGF and bFGF were replaced with Activin A to induce Nodal signaling and promote endoderm fate (see FIG. 1A). […] To improve the efficiency of endoderm differentiation, the cells were exposed to several small molecules.

calpain II = biological target: T1, calpain II (Homo sapiens, UniProt P17655); settings: purified enzyme assay; read-out: IC50 against calpain II; cited from earlier work
T1 sequence (P17655 1-700): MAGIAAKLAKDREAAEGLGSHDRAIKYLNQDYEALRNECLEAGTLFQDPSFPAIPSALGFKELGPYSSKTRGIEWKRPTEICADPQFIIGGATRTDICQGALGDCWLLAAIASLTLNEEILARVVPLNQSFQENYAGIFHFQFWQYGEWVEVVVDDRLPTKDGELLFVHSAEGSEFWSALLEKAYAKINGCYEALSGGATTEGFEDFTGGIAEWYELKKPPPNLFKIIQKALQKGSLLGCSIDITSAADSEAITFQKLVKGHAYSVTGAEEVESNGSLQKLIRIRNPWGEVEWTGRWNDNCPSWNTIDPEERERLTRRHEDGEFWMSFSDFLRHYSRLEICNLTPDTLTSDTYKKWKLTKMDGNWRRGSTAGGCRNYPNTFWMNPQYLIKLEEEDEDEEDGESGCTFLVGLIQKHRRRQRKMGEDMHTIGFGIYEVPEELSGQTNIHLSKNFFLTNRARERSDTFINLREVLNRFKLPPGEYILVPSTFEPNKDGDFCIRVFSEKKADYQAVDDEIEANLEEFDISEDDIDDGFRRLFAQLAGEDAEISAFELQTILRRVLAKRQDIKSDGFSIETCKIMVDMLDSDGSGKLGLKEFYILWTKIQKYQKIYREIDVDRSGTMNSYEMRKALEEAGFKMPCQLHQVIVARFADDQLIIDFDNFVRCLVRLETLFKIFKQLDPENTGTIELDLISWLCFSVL
T1 sequence (P04632 1-268 partner): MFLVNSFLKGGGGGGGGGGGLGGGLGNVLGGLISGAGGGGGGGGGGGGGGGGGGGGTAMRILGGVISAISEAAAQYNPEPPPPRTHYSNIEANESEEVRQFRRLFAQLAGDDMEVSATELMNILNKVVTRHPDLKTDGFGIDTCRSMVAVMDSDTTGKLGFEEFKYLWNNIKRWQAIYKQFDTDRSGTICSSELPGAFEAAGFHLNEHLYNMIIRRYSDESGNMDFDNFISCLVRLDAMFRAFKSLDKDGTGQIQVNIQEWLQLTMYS

N=C(N)N1Cc2ccccc2C(O)C1 (stereo not shown) [4-hydroxydebrisoquine]
time of peak plasma level after gavage (CYP2D6): 1 h

Cc1cccc(-c2nn(C(=S)Nc3ccccc3)cc2-c2ccnc3ccccc23)n1 [A83-01, 3-(6-Methyl-2-pyridinyl)-N-phenyl-4-(4-quinolinyl)-1H-pyrazole-1-carbothioamide]
iMPC-EPC colony size (iMPC-EPCs [1]; CHIR99021 combined with A83-01): increased | induction of ALB gene expression (iMPC-EPCs [2]): effective

Nc1ccccc1NC(=O)CCCCCCC(=O)Nc1ccccc1 [BML-210, N1-(2-aminophenyl)-N8-phenyl-octanediamide]
IC50 [3]: ~80000 nM

Cc1c[nH]c(-c2cnc(NCCNc3ccc(C#N)cn3)nc2-c2ccc(Cl)cc2Cl)n1 [CHIR99021, 6-(2-(4-(2,4-dichlorophenyl)-5-(4-methyl-1H-imidazol-2-yl)pyrimidin-2-ylamino)ethylamino)nicotinonitrile]
iMPC-EPC colony size (iMPC-EPCs [1]; CHIR99021 combined with A83-01): increased

CC1(C)NC(=O)C(CCCCCC(=O)[C@H]2CO2)NC(=O)C2CCCN2C(=O)[C@@H](Cc2ccccc2)NC1=O (stereo partly drawn) [Chlamydocin, (3R)-3-benzyl-6,6-dimethyl-9-[6-[(2R)-oxiran-2-yl]-6-oxohexyl]-1,4,7,10-tetrazabicyclo[10.3.0]pentadecane-2,5,8,11-tetrone]
IC50 [4]: ~0.15 nM

C[C@H](NC(=O)Cc1cc(F)cc(F)c1)C(=O)N[C@H]1N=C(c2ccccc2)c2ccccc2N(C)C1=O [Compound E]
IC50 (γ-secretase): 0.3 nM | effect on presenilase activity (presenilase): only weakly affects | induction of ALB gene expression (iMPC-EPCs [2]): effective

NC(=O)c1ccc(-c2nc(-c3ccc4c(c3)OCCO4)c(-c3ccccn3)[nH]2)cc1 [D 4476, 4-[4-(2,3-Dihydro-1,4-benzodioxin-6-yl)-5-(2-pyridinyl)-IH-imidazol-2-yl]benzamide]
selectivity over SAPK2/p38 (SAPK2/p38): greater than 20 fold

CCCCCCCCCCCC(=O)OC[C@H](COP(=O)([O-])OCC[N+](C)(C)C)OC(=O)CCCCCCCCCCC [Dilauroyl phosphatidylcholine]
increase in the number of FOXA2-positive colonies [5]: 2 fold

CCC(C)C(NC(=O)C(NC(=O)OC(C)(C)C)C(C)C)C(=O)NC(C)C(=O)C(F)(F)C(=O)NC(C(=O)NC(C(=O)OC)C(C)CC)C(C)C (stereo not shown) [Gamma-Secretase Inhibitor II] (Boc-VI[X1]VI-OMe; configuration not given here)
IC50 (calpain II): 100000 nM

Nc1ccccc1NC(=O)c1ccc(CNc2nccc(-c3cccnc3)n2)cc1 [MGCD0103, N-(2-aminophenyl)-4-[[(4-pyridin-3-ylpyrimidin-2-yl)amino]methyl]benzamide]
IC50 [4]: ~100 nM

Nc1ccccc1NC(=O)c1ccc(CNC(=O)OCc2cccnc2)cc1 [MS-27-275, pyridin-3-ylmethyl-N-[[4-[(2-aminophenyl)carbamoyl]phenyl]methyl]carbamate]
IC50 [4]: 100 to 1000 nM

CC(/C=C/C(=O)NO)=C\[C@@H](C)C(=O)c1ccc(N(C)C)cc1 [Trichostatin A, (R,2E,4E)-6-(4-(dimethylamino)benzoyl)-N-hydroxy-4-methylhepta-2,4-dienamide]
IC50 [4]: ~1.8 nM

bFGF: basic fibroblast growth factor
iMPC-EPC colony size (iMPC-EPCs [1]; EGF and bFGF added to CHIR99021 and A83-01): further increased
